Laboratory results as given in ChEMBL document CHEMBL2007661, “Compounds: GSK PKIS; Assays: UNC Frye lab” (2012).
Values joined by “and” are separate entries in the source; they are usually repeats but may differ in a detail not shown here. Identical values can stand only once.

Columns and labels:
[1] = biological target: T1, Inhibitor of nuclear factor kappa-B kinase subunit beta (Homo sapiens) (UniProt O14920); conditions: at 1 µM
T1 sequence (whole entry): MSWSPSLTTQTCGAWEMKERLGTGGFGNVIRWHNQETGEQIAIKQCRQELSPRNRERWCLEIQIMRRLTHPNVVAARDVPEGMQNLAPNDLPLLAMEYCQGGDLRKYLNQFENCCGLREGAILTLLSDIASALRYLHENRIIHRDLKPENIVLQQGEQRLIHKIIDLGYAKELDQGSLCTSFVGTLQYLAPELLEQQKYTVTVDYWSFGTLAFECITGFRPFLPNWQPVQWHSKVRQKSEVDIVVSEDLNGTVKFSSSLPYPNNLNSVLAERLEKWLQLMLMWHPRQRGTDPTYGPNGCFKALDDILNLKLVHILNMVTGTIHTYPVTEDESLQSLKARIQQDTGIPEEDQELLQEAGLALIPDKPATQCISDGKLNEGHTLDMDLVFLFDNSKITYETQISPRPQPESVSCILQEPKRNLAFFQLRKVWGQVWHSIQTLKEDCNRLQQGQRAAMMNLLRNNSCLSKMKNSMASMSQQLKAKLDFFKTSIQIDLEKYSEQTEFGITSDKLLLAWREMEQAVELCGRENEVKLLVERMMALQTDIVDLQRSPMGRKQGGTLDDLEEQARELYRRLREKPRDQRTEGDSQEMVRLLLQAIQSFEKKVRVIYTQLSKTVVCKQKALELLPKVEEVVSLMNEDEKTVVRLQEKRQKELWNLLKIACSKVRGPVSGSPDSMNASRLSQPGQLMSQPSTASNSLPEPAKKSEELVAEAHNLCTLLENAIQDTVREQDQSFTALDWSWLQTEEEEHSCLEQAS

[2] = biological target: T2, Inhibitor of nuclear factor kappa-B kinase subunit alpha (Homo sapiens) (UniProt O15111); conditions: at 1 µM
T2 sequence (whole entry): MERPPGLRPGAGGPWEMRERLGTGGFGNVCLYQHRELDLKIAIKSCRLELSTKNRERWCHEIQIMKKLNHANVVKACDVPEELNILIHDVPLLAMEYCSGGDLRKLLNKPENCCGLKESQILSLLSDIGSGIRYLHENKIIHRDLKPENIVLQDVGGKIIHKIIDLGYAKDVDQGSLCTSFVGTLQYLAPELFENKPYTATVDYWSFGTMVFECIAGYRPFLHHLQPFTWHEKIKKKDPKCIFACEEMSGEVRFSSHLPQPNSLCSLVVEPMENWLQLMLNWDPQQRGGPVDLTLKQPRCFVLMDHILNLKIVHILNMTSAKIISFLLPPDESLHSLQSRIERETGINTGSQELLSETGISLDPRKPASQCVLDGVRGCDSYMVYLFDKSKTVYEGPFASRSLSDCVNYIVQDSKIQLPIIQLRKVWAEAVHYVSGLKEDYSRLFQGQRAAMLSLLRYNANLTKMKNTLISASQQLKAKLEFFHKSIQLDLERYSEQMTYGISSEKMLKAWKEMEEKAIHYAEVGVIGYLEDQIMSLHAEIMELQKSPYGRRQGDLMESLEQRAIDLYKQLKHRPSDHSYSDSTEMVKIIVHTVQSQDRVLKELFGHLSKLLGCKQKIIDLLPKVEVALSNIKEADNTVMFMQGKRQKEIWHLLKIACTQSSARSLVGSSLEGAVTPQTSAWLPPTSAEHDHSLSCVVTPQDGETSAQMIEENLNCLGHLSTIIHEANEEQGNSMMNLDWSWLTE

Row | SMILES | inhibition [1] | inhibition [2]
1 | COc1cccc(-n2ncc3c(N/N=C/c4ccc(S(C)(=O)=O)cc4)ncnc32)c1 | -1% | 3% and 2%
2 | CC1=C(C(=O)Nc2ccc3[nH]ncc3c2)C(c2ccc(F)cc2)N=C(c2ccc(C(F)(F)F)nc2)N1 (stereo unspecified) | -2% and -3% | -4%
3 | COc1cccc(-n2ncc3c(N/N=C/c4ccc(C)cc4)ncnc32)c1 | 0% and -2% | 13%
